Experimental data as given in patent US20210254138A1, “SIALIC ACID TRANSPORTER PROTEINS AS BIOMARKERS AND DRUG TARGETS” (Quadram Institute Bioscience, priority 2018, published 2021).

Molecular target: T1, RUMGNA_02695 (RgNanOx, oxidoreductase) (Mediterraneibacter gnavus, UniProt A7B558)
T1 construct: the full length RgNanA and full length RUMGNA_02695 were amplified from R. gnavus ATCC 29149 gDNA; His6 (pHISTEV vector) (N); made in house; host or cells: E. coli BL21
Assay: RUMGNA_02695 enzymatic activity assay
Assay type: biochemical, R. gnavus ATCC 29149
Procedure: To assay RUMGNA_02695 activity against 2,7-anhydro-Neu5Ac, the purified recombinant protein was incubated in 100 μl reactions at 37° C. overnight with 1 mM 2,7-anhydro-Neu5Ac, 50 mM sodium phosphate buffer pH 7.0 and 500 μM NADH, NAD, FAD or no cofactor. The reactions were dried using a Concentrator Plus (Eppendorf) for 1 h. Samples were then resuspended in 50 μl of water and 50 μl of reaction buffer (1.74 mg of 1,2-Diamino-4,5-methylenedioxybenzene dihydrochloride (Carbosynth, UK), 324.6 μl MilliQ water, 88.6 μl glacial acetic acid, 58.2 μl of β-Mercaptoethanol and 79.3 μl of sodium hydrosulphite) and incubated for 2 h at 55° C. in the dark. The samples were then centrifuged for 1 min and filtered using a 0.45 μm filter into a glass HPLC vial and directly analysed by HPLC.
DMB-labelled samples were analysed by injecting 10 μl onto a Luna 5 μm C-18(2) LC column 250×4.6 mm (Phenomenex) at 1 ml/min. Mobile phases methanol/acetonitrile/water were used for separation of fluorescently labelled sialic acids. The settings of the fluorescence detector were 373 nm excitation and 448 nm emission. Samples were run alongside a Neu5Ac standard.
To determine the kinetic parameters of RUMGNA_02695 enzymatic reaction, a coupled reaction with lactate dehydrogenase and sialic acid aldolase was carried out as described above but with 15 μg of RgNanA and 10 μg RUMGNA_02695 in each reaction. For the kinetics assays, 1, 0.4, 0.2, 0.1, 0.04, 0.02 and 0.01 mM 2,7-anhydro-Neu5Ac was used and the initial rate of reaction determined for each concentration in triplicate before analysis was performed by fitting the data to a Michaelis-Menten using Graph Pad Prism (V 5.03).
Electrospray ionisation spray mass spectrometry (ESI-MS) analysis was performed using the Applied Biosystems 4000 Q-TRAP. The full 100 μl reaction was diluted with 500 ul of 50% Acetonitrile and 0.1% formic acid and samples analysed in negative ion mode using direct injection.

[1] = coupled reaction with excess aldolase and lactate dehydrogenase

T1 sequence (A7B558 whole entry): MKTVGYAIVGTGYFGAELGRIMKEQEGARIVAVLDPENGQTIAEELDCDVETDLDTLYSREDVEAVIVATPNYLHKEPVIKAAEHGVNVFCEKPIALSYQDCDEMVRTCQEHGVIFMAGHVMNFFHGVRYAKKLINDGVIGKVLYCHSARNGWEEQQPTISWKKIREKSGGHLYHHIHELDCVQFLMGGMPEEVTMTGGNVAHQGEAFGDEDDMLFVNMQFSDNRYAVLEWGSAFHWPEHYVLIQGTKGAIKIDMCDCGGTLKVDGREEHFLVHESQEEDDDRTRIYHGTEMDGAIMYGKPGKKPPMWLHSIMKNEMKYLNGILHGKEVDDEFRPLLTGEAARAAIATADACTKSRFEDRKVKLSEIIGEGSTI

## CC(=O)N[C@H]1C2OC(C(=O)O)(C[C@@H]1O)O[C@@H]2[C@H](O)CO (stereo partly drawn) [2,7-anhydro-Neu5Ac]
1 mM substrate, in the presence of NAD+ or NADH, not with FAD or without cofactor
  reaction product by HPLC after DMB labelling: Neu5Ac was observed as a reaction product
[1]
  Km: 74 ± 14 µM
  kcat: 0.0824 ± 0.0043 s⁻¹
